Laboratory results taken from the RepoRT retention time repository (doi:10.1038/s41586-021-03707-9).

Experiments:
[1] = Waters ACQUITY UPLC BEH C18, 100 × 2.1 mm, 1.7 µm, 40 °C, 0.28 mL/min, estimated dead time 0.63 min; A: water + 6.5 mM ammonium hydroxide; B: methanol + 6.5 mM ammonium hydroxide; gradient (min/%B) 0/0.5 4/70 4.5/98 5.4/98; details: stereoisomer not certain
[2] = RP, Waters ACQUITY UPLC HSS C18, 100 × 2.1 mm, 1.7 µm, 40 °C, 0.35 mL/min, estimated dead time 0.63 min; A: water + 0.1% formic acid; B: methanol + 0.1% formic acid; gradient (min/%B) 0/0.5 4/70 4.5/98 5.4/98; details: stereoisomer not certain

Compound	LC retention time [1] [min]	LC retention time [2] [min]
NCCCCC(N)C(=O)O (configuration not stated)	0.794	
O=CCc1c[nH]c2ccccc12	4.4	
O=C(CO)C(OC1OC(CO)C(O)C(O)C1O)C(O)C(O)CO (configuration not stated)	0.828	
O=C(O)CCCCCCC(=O)O	0.826	
OCC1OC(OCC2OC(OCC3OC(OC4(CO)OC(CO)C(O)C4O)C(O)C(O)C3O)C(O)C(O)C2O)C(O)C(O)C1O (configuration not stated)	0.928	
Oc1ccccc1O	2.93	
CC(=O)C1C(=O)C=C(C)OC1=O (configuration not stated)	2.04	
Nc1ncnc2c1ncn2C1OC(COP(=O)(O)O)C(O)C1O (configuration not stated)	0.858	
O=C(O)Cc1ccc(O)c(O)c1	1.1	
CC(CCC(=O)O)C1CCC2C3C(O)CC4CC(O)CCC4(C)C3CC(O)C12C (configuration not stated)	4.99	
Cc1cn(C2CC(O)C(COP(=O)(O)OP(=O)(O)OC3OC(CO)C(O)C(O)C3O)O2)c(=O)[nH]c1=O (configuration not stated)	0.923	
O=S(=O)(O)c1cccc2cccc(Nc3ccccc3)c12	5.12	
CC=CC(=O)O	0.869	
NC(=O)CCC(N)C(=O)O (configuration not stated)	0.764	
O=C(CCc1ccc(O)cc1)c1c(O)cc(O)cc1OC1OC(CO)C(O)C(O)C1O (configuration not stated)	3.5	
Oc1cccc2cccnc12	4.19	
CC(C)(CO)C(O)C(=O)NCCC(=O)O (configuration not stated)	1.7	
COc1ccc2[nH]cc(CCN)c2c1	3.64	
O=CC(O)C(O)C(O)CO (configuration not stated)	0.839	
C[N+](C)(C)CC(O)CC(=O)[O-] (configuration not stated)	1.23	
OCc1cccc(O)c1	2.93	
O=C(O)c1ccc2ccccc2c1O	4.3	
CC1=C(CCC(=O)O)c2cc3nc(cc4[nH]c(cc5[nH]c(cc1n2)c(C)c5CCC(=O)O)c(CCC(=O)O)c4C)C(CCC(=O)O)=C3C	3.64	
O=c1[nH]cc(CO)c(=O)[nH]1	0.855	
CCCC(CCC)C(=O)O	4.23	

Compound	LC retention time [1] [min]	LC retention time [2] [min]
CC(C)Cc1ccc(C(C)C(=O)O)cc1 (configuration not stated)	5.27	
NC(CO)C(=O)O (configuration not stated)	0.761	
O=C(O)C1CCC(O)CC1 (configuration not stated)	0.776	
Nc1ncnc2c1ncn2C1OC(COP(=O)(O)OP(=O)(O)OCC2OC(O)C(O)C2O)C(O)C1O (configuration not stated)	0.924	
NC(CO)Cc1cnc[nH]1 (configuration not stated)	1.28	
O=C(O)CCCc1ccccc1	3.86	
OCCNCCO	0.945	
O=c1[nH]c(=O)c2[nH]c(=O)[nH]c2[nH]1	0.828	
CC(=O)OCc1ccccc1	2.78	
CC(C)(COP(=O)(O)OP(=O)(O)OCC1OC(n2cnc3c(N)ncnc32)C(O)C1OP(=O)(O)O)C(O)C(=O)NCCC(=O)NCCS (configuration not stated)	0.853	
CC(=O)NC(CS)C(=O)O (configuration not stated)	1.15	
COc1ccc(CC(=O)O)cc1OC	2.66	
O=C(O)CCc1cccc(O)c1	2.24	
O=C(O)CCc1ccc(O)cc1	2.5	
OCC1OC(OCC2OC(O)(CO)C(O)C2O)C(O)C(O)C1O (configuration not stated)	0.892	
CCCCC1=NC2(CCCC2)C(=O)N1Cc1ccc(-c2ccccc2-c2nn[nH]n2)cc1	5.32	
CC(C)CCC(=O)O	3.06	
CCC(C)C(O)C(=O)O (configuration not stated)	1.97	
O=C(O)c1c(O)cccc1O	2.9	
NCCC(=O)NC(Cc1cnc[nH]1)C(=O)O (configuration not stated)	0.9	
O=c1[nH]c(=O)c2[nH]cnc2[nH]1	0.977	
O=C(O)c1cc(O)ccc1O	1.63	
COc1cc(C=O)ccc1O	2.51	
Cc1ccc(O)c([N+](=O)[O-])c1	4.33	
CCC(CO)C(=O)O (configuration not stated)	0.857	

Compound	LC retention time [1] [min]	LC retention time [2] [min]
COC1OC(CO)C(O)C(O)C1O (configuration not stated)	0.979	
CC(=O)NC(CCC(N)=O)C(=O)O (configuration not stated)	0.835	
Cc1cc(C(=O)O)ccc1O	3.54	
O=C(O)C(O)c1cccc(O)c1 (configuration not stated)	0.848	
C[N+](C)(C)CCCCC(N)C(=O)[O-] (configuration not stated)	0.837	
O=C(O)CNC(=O)c1ccccc1O	2.48	
CC([NH3+])C(=O)NCC(=O)[O-] (configuration not stated)	2.68	
NC(=O)C1=CN(C2OC(COP(=O)(O)OP(=O)(O)OCC3OC(n4cnc5c(N)ncnc54)C(O)C3O)C(O)C2O)C=CC1 (configuration not stated)	0.901	
NC(CS)C(=O)NCC(=O)O (configuration not stated)	0.946	
O=C(O)C(=O)c1ccccc1	2.26	
O=C(C=Cc1ccc(O)c(O)c1)OC(Cc1ccc(O)c(O)c1)C(=O)O (configuration not stated)	3.14	
N#CCc1c[nH]c2ccccc12	4.53	
NC(N)=Nc1nc(CSCCC(N)=NS(N)(=O)=O)cs1	3.07	
O=S(=O)(O)Oc1c[nH]c2ccccc12	2.59	
NC(Cc1cnc[nH]1)C(=O)O (configuration not stated)	0.849	
O=C(O)c1cccc(O)c1O	1.56	
CCCCC(CC)CCC(=O)O (configuration not stated)	5.33	
Cn1cncc1CC(N)C(=O)O (configuration not stated)	0.969	
[2H]C([2H])([2H])C([2H])([2H])C([2H])([2H])C([2H])([2H])C([2H])([2H])C([2H])([2H])C([2H])([2H])C(=O)O	4.67	
CC(C)C(N)C(=O)O (configuration not stated)	1	
CSCCC(O)C(=O)O (configuration not stated)	1.5	
CC(=O)S	2.35	
NC(=O)c1ncn(C2OC(CO)C(O)C2O)n1 (configuration not stated)	0.858	
O=C(O)CCCCC1CCSS1 (configuration not stated)	3.95	
O=C(O)CC(O)(CC(=O)O)C(=O)O		1.43

Compound	LC retention time [1] [min]	LC retention time [2] [min]
COc1ccc(C2Sc3ccccc3N(CCN(C)C)C(=O)C2OC(C)=O)cc1 (configuration not stated)		4.53
CN1C2CCC1CC(OC(=O)C(CO)c1ccccc1)C2 (configuration not stated)		3.22
O=C(O)CNC(=O)c1ccccc1		3.23
NC(CCOC(=O)CCC(=O)O)C(=O)O (configuration not stated)		1.36
CC(=O)Oc1cc(C)c(OC(C)=O)c2ccccc12		5.35
CC12CCC(=O)C=C1CCC1C2C(O)CC2(C)C(C(=O)CO)CCC12 (configuration not stated)		5.31
NC(CS(=O)O)C(=O)O (configuration not stated)		0.768
COC(=O)C1=C(C)NC(C)=C(C(=O)OC)C1c1ccccc1[N+](=O)[O-]		5.28
NCC(O)c1ccc(O)cc1 (configuration not stated)		0.904
CN(C)CCCN1c2ccccc2CCc2ccccc21		4.77
CCC1CCC(=O)O1 (configuration not stated)		3.33
O=C(O)CCC(=O)O		1.73
CNCC(O)c1ccc(O)c(O)c1 (configuration not stated)		0.911
O=Cc1ccc(O)c(O)c1		2.91
Cc1cc2nc3[nH]c(=O)[nH]c(=O)c3nc2cc1C		4.5
NC(CS(=O)(=O)O)C(=O)O (configuration not stated)		0.773
O=C(O)CCCCCCCC(=O)O		4.56
Nc1ccc(O)cc1		0.829
O=C(O)CCCCCCCCC(=O)O		4.96
NC(=O)NC(NC(N)=O)C(=O)O		0.777
CCC(=O)OC(CC(=O)[O-])C[N+](C)(C)C (configuration not stated)		1.82
CC(C)CC(O)C(=O)O (configuration not stated)		3.94
